Experiments:
Assay type in all cases: in vivo, rat
[1] = test system: male spontaneously hypertensive rats (SHR); assay: Pharmacological Test-1: blood pressure after oral administration in spontaneously hypertensive rats; details: for Blood Pressure (mmHg) 1 hr. / Blood Pressure (mmHg) 3 hrs. / Blood Pressure (mmHg) 6 hrs. / Blood Pressure (mmHg) 9 hrs. / Blood Pressure (mmHg) 12 hrs.: oral; for Blood Pressure (mmHg) 1 hr.: variation of blood pressure 1 hr. after administration; for Blood Pressure (mmHg) 3 hrs.: variation of blood pressure 3 hrs. after administration; for Blood Pressure (mmHg) 6 hrs.: variation of blood pressure 6 hrs. after administration; for lapse of time until approximately maximum blood pressure depression / blood pressure depression, result in words: summary of Table 1; for Blood Pressure (mmHg) 9 hrs.: variation of blood pressure 9 hrs. after administration; for Blood Pressure (mmHg) 12 hrs.: variation of blood pressure 12 hrs. after administration
Method: (§1) This test was performed using male spontaneously hypertensive rats (SHR, 15 weeks old or older, 300 to 400 g). Under halothane anesthesia, the left femoral arteries of the rats were cannulated using a polyethylene cannula. The cannula was connected to a device for blood pressure measurement. Then, the rats were placed in the Bollman-type cages. After one hour, it was confirmed that the blood pressure was kept constant. When the rats waked, they were orally administered with the test compound, and variation of blood pressure after the administration was measured as time passed. The test compound was suspended or dissolved in 1% aqueous methylcellulose solution and administered in an amount of 0.2 mL per 100 g of body weight.

[2] = test system: normal male rats of Wister strain; assay: Pharmacological Test-4: blood pressure after oral administration in normal rats; details: for Blood Pressure (mmHg) 1 hr. / Blood Pressure (mmHg) 3 hrs. / Blood Pressure (mmHg) 6 hrs. / Blood Pressure (mmHg) 9 hrs. / Blood Pressure (mmHg) 12 hrs.: oral; for Blood Pressure (mmHg) 1 hr.: 1 hr. after administration; for Blood Pressure (mmHg) 3 hrs.: 3 hrs. after administration; for Blood Pressure (mmHg) 6 hrs.: 6 hrs. after administration; for Blood Pressure (mmHg) 9 hrs.: 9 hrs. after administration; for Blood Pressure (mmHg) 12 hrs.: 12 hrs. after administration; for effect on normal blood pressure, result in words: summary of Table 4
Method: as §1
(§2) This test was performed by measuring the blood pressure in the same manner as in the above pharmacological test-1 using normal male rats of Wister strain (15 weeks old or older, 300 to 400 g, not-fasted). The test results are set forth in Table 4.The compound of the invention examined in this test was the same as that employed in the pharmacological test-1.

[3] = test system: male DOCA salt hypertensive rats (DOCAR); assay: Pharmacological Test-2: blood pressure after oral administration in DOCA salt hypertensive rats; details: for Blood Pressure (mmHg) 1 hr. / Blood Pressure (mmHg) 3 hrs. / Blood Pressure (mmHg) 6 hrs. / Blood Pressure (mmHg) 9 hrs. / Blood Pressure (mmHg) 12 hrs.: DOCA salt hypertensive rats, oral, 3 mg/kg; for Blood Pressure (mmHg) 1 hr.: 1 hr. after administration; for Blood Pressure (mmHg) 3 hrs.: 3 hrs. after administration; for Blood Pressure (mmHg) 6 hrs.: 6 hrs. after administration; for Blood Pressure (mmHg) 9 hrs.: 9 hrs. after administration; for Blood Pressure (mmHg) 12 hrs.: 12 hrs. after administration; for lapse of time until approximately maximum blood pressure depression: summary of 'Tables 1 and 2' as printed after Table 3
Method: as §1
as §2, with “using” for “using normal”, “male DOCA salt hypertensive” for “male”, “(DOCAR, 15” for “of Wister strain (15”, “2.The” for “4.The”

[4] = test system: male Dahl salt sensitive male rats (DahlSR); assay: Pharmacological Test-3: blood pressure after oral administration in Dahl salt sensitive rats; details: 3 mg/kg; for Blood Pressure (mmHg) 1 hr.: 1 hr. after administration; for Blood Pressure (mmHg) 3 hrs.: 3 hrs. after administration; for Blood Pressure (mmHg) 6 hrs.: 6 hrs. after administration; for Blood Pressure (mmHg) 9 hrs.: 9 hrs. after administration; for Blood Pressure (mmHg) 12 hrs.: 12 hrs. after administration
Method: as §1
This test was performed in the same manner as in the above pharmacological test-1 using male Dahl salt sensitive male rats (DahlSR, 15 weeks old or older, 300 to 400 g, not-fasted). The compound of the invention examined in this test was the same as that employed in the pharmacological test-1.

SMILES | Blood Pressure (mmHg) 1 hr. ([1]; 1 mg/kg) | Blood Pressure (mmHg) 3 hrs. ([1]; 1 mg/kg) | Blood Pressure (mmHg) 6 hrs. ([1]; 1 mg/kg) | Blood Pressure (mmHg) 1 hr. ([1]; 3 mg/kg) | Blood Pressure (mmHg) 3 hrs. ([1]; 3 mg/kg) | Blood Pressure (mmHg) 6 hrs. ([1]; 3 mg/kg) | lapse of time until approximately maximum blood pressure depression [1] | blood pressure depression, result in words [1] | Blood Pressure (mmHg) 1 hr. ([2]; 3 mg/kg) | Blood Pressure (mmHg) 3 hrs. ([2]; 3 mg/kg) | Blood Pressure (mmHg) 6 hrs. ([2]; 3 mg/kg) | Blood Pressure (mmHg) 9 hrs. ([2]; 3 mg/kg) | Blood Pressure (mmHg) 12 hrs. ([2]; 3 mg/kg) | effect on normal blood pressure, result in words [2] | Blood Pressure (mmHg) 1 hr. [3] | Blood Pressure (mmHg) 3 hrs. [3] | Blood Pressure (mmHg) 6 hrs. [3] | Blood Pressure (mmHg) 9 hrs. [3] | Blood Pressure (mmHg) 12 hrs. [3] | lapse of time until approximately maximum blood pressure depression [3] | further results
COc1cc2nc(N3CCN(C(=O)c4ccccc4)CC3)nc(N)c2cc1OC.Cl [Comp. [C], 4-amino-2-(4-benzoyl-1-piperazinyl)-6,7-dimethoxyquinazoline hydrochloride] | −36 mmHg | −31 mmHg | −39 mmHg | −64 mmHg | −64 mmHg | −61 mmHg | one hour |  |  |  |  |  |  |  |  |  |  |  |  |  | 
COc1cc2nc(N3CCN(C(=O)c4ccc(O)cc4)CC3)nc(N)c2cc1OC.Cl [Comp. [D], 4-amino-2-[4-(4-hydroxybenzoyl)-1-piperazinyl]-6,7-dimethoxyquinazoline hydrochloride] | 2 mmHg | −3 mmHg | −6 mmHg | −5 mmHg | −6 mmHg | −8 mmHg |  | very little blood pressure depression |  |  |  |  |  |  |  |  |  |  |  |  | 
COc1cc2nc(N3CCN(C(=O)C4COc5ccccc5O4)CC3)nc(N)c2cc1OC (stereo not drawn) [Doxa., doxazosin mesilate] | −19 mmHg | −21 mmHg | −19 mmHg | −35 mmHg | −32 mmHg | −29 mmHg |  |  | −24 mmHg | −19 mmHg | −20 mmHg | −22 mmHg | −23 mmHg | largely decrease normal blood pressure |  |  |  |  |  |  | Blood Pressure (mmHg) 1 hr. ([1]; 10 mg/kg): −37 mmHg; Blood Pressure (mmHg) 3 hrs. ([1]; 10 mg/kg): −50 mmHg; Blood Pressure (mmHg) 6 hrs. ([1]; 10 mg/kg): −35 mmHg
COc1cc2nc(N3CCN(C(=O)c4cc(C(C)(C)C)c(O)c(C(C)(C)C)c4)CC3)nc(N)c2cc1OC.Cl [Invention, 4-amino-2-[4-(3,5-di-t-butyl-4-hydroxybenzoyl)-1-piperazinyl]-6,7-dimethoxyquinazoline hydrochloride] | −4 mmHg | −25 mmHg | −41 mmHg | −29 mmHg | −60 mmHg | −75 mmHg | six hours | slowly decreases the blood pressure | −5 mmHg | −9 mmHg | −19 mmHg | −21 mmHg | −24 mmHg | affects the normal blood pressure only slightly | −15 mmHg | −42 mmHg | −62 mmHg | −49 mmHg | −37 mmHg | six hours | Blood Pressure (mmHg) 1 hr. ([2]; 1 mg/kg): −4 mmHg; Blood Pressure (mmHg) 3 hrs. ([2]; 1 mg/kg): −11 mmHg; Blood Pressure (mmHg) 6 hrs. ([2]; 1 mg/kg): −21 mmHg; Blood Pressure (mmHg) 9 hrs. ([2]; 1 mg/kg): −22 mmHg; Blood Pressure (mmHg) 12 hrs. ([2]; 1 mg/kg): −23 mmHg; Blood Pressure (mmHg) 9 hrs. ([1]; 1 mg/kg): −44 mmHg; Blood Pressure (mmHg) 12 hrs. ([1]; 1 mg/kg): −39 mmHg; Blood Pressure (mmHg) 9 hrs. ([1]; 3 mg/kg): −64 mmHg; Blood Pressure (mmHg) 12 hrs. ([1]; 3 mg/kg): −60 mmHg; Blood Pressure (mmHg) 1 hr. [4]: −11 mmHg; Blood Pressure (mmHg) 3 hrs. [4]: −25 mmHg; Blood Pressure (mmHg) 6 hrs. [4]: −49 mmHg; Blood Pressure (mmHg) 9 hrs. [4]: −50 mmHg; Blood Pressure (mmHg) 12 hrs. [4]: −52 mmHg
COc1cc2nc(N3CCN(C(=O)c4ccco4)CC3)nc(N)c2cc1OC.Cl [Prazo., prazosin hydrochloride] | −35 mmHg | −41 mmHg | −42 mmHg | −57 mmHg | −69 mmHg | −65 mmHg | one hour |  | −44 mmHg | −40 mmHg | −33 mmHg | −33 mmHg | −43 mmHg | largely decrease normal blood pressure | −81 mmHg | −62 mmHg | −69 mmHg | −50 mmHg | −36 mmHg | one to two hours | Blood Pressure (mmHg) 1 hr. ([2]; 1 mg/kg): −27 mmHg; Blood Pressure (mmHg) 3 hrs. ([2]; 1 mg/kg): −21 mmHg; Blood Pressure (mmHg) 6 hrs. ([2]; 1 mg/kg): −23 mmHg; Blood Pressure (mmHg) 9 hrs. ([2]; 1 mg/kg): −23 mmHg; Blood Pressure (mmHg) 12 hrs. ([2]; 1 mg/kg): −24 mmHg; Blood Pressure (mmHg) 9 hrs. ([1]; 1 mg/kg): −41 mmHg; Blood Pressure (mmHg) 12 hrs. ([1]; 1 mg/kg): −38 mmHg; Blood Pressure (mmHg) 9 hrs. ([1]; 3 mg/kg): −61 mmHg; Blood Pressure (mmHg) 12 hrs. ([1]; 3 mg/kg): −60 mmHg; Blood Pressure (mmHg) 1 hr. [4]: −48 mmHg; Blood Pressure (mmHg) 3 hrs. [4]: −41 mmHg; Blood Pressure (mmHg) 6 hrs. [4]: −43 mmHg; Blood Pressure (mmHg) 9 hrs. [4]: −40 mmHg; Blood Pressure (mmHg) 12 hrs. [4]: −36 mmHg

— US6706705B1, “Quinazoline derivatives” (Nippon Chemiphar Co., Ltd., priority 1994, dated 2004)
